The source of these data is US9376442B2, “Methylpyrrolopyrimidinecarboxamides” (Takeda GmbH, priority 2009, dated 2016).

The target of the experiment is T1, PDE5A1 (Homo sapiens, UniProt O76074).
T1 construct: from tissue; host or cells: human platelets from fresh donor blood (10,000 x g supernatant of sonicated lysate)
The experiment is described as follows: Inhibition of type 5 phosphodiesterase (PDE5) activity, modified SPA test with human platelet lysate. The class given is biochemical. To be noted: 0.5 μM cGMP, read-out: PDE5A1 inhibitory values [measured as −log IC50 (mol/l)] (converted). The method in brief:
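Scintillation proximity assay with [3H]cGMP tracer at 0.5 μM total cGMP, stopped after 15 min with beads containing IBMX. PDE3 and PDE2 activities suppressed with motapizone (1 μM) and a PDE2 inhibitor (10 nM). Human platelet supernatant served as the enzyme, with compound preincubated 5 min at 37° C; IC50 values from concentration-effect curves.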
Turning to `COc1cc(OCC2CC2)c(-c2ncnc3c(C(=O)N[C@H]4CC[C@@H](NC(C)=O)CC4)c(C)[nH]c23)cc1F` [Example E138, N-(cis-4-Acetamidocyclohexyl)-4-[2-(cyclopropylmethoxy)-5-fluoro-4-methoxyphenyl]-6-methyl-5H-pyrrolo[3,2-d]pyrimidine-7-carboxamide], the IC50 is less than 1 nM.

`CCC(=O)N[C@H]1CC[C@@H](NC(=O)c2c(C)[nH]c3c(-c4cc(F)c(OC)cc4OCC4CC4)ncnc23)CC1` [Example E139, 4-[2-(Cyclopropylmethoxy)-5-fluoro-4-methoxyphenyl]-6-methyl-N-[cis-4-(propionylamino)cyclohexyl]-5H-pyrrolo[3,2-d]pyrimidine-7-carboxamide]: the IC50 is less than 1 nM.

As for `COCC(=O)N[C@H]1CC[C@@H](NC(=O)c2c(C)[nH]c3c(-c4cc(F)c(OC)cc4OCC4CC4)ncnc23)CC1` [Example E140, 4-[2-(Cyclopropylmethoxy)-5-fluoro-4-methoxyphenyl]-N-{cis-4-[(methoxyacetyl)amino]cyclohexyl}-6-methyl-5H-pyrrolo[3,2-d]pyrimidine-7-carboxamide], the IC50 was less than 1 nM.

For `CCOC(=O)N[C@H]1CC[C@@H](NC(=O)c2c(C)[nH]c3c(-c4cc(F)c(OC)cc4OCC4CC4)ncnc23)CC1` [Example E141, Ethyl {cis-4-[({4-[2-(cyclopropylmethoxy)-5-fluoro-4-methoxyphenyl]-6-methyl-5H-pyrrolo[3,2-d]pyrimidin-7-yl}carbonyl)amino]cyclohexyl}carbamate], the IC50 is less than 1 nM.

For the molecule `COCC(=O)N1CCC(NC(=O)c2c(C)[nH]c3c(-c4cc(C(C)C)ccc4OCC4CC4)ncnc23)CC1` [Example E158, 4-[2-(Cyclopropylmethoxy)-5-(propan-2-yl)phenyl]-N-[1-(methoxyacetyl)piperidin-4-yl]-6-methyl-5H-pyrrolo[3,2-d]pyrimidine-7-carboxamide], the IC50 is 1 to 10 nM.

`CC(=O)N[C@H]1CC[C@@H](NC(=O)c2c(C)[nH]c3c(-c4cc(C(C)C)ccc4OCC4CC4)ncnc23)CC1` [Example E161, N-[cis-4-(Acetylamino)cyclohexyl]-4-[2-(cyclopropylmethoxy)-5-(propan-2-yl)phenyl]-6-methyl-5H-pyrrolo[3,2-d]pyrimidine-7-carboxamide]: the IC50 is less than 1 nM.

Turning to `COCC(=O)N[C@H]1CC[C@@H](NC(=O)c2c(C)[nH]c3c(-c4cc(C(C)C)ccc4OCC4CC4)ncnc23)CC1` [Example E162, 4-[2-(Cyclopropylmethoxy)-5-(propan-2-yl)phenyl]-N-{cis-4-[(methoxyacetyl)amino]cyclohexyl}-6-methyl-5H-pyrrolo[3,2-d]pyrimidine-7-carboxamide], the IC50 was 1 to 10 nM.

Consider `CC(=O)c1ccc(OCC2CC2)c(-c2ncnc3c(C(=O)NC4CCN(C(C)=O)CC4)c(C)[nH]c23)c1` [Example E163, 4-[5-Acetyl-2-(cyclopropylmethoxy)phenyl-]-N-(1-acetylpiperidin-4-yl)-6-methyl-5H-pyrrolo[3,2-d]pyrimidine-7-carboxamide], for which the IC50 was less than 1 nM.

On to `CCC(=O)N1CCC(NC(=O)c2c(C)[nH]c3c(-c4cc(C(C)=O)ccc4OCC4CC4)ncnc23)CC1` [Example E164, 4-[5-Acetyl-2-(cyclopropylmethoxy)phenyl]-6-methyl-N-(1-propanoylpiperidin-4-yl)-5H-pyrrolo[3,2-d]pyrimidine-7-carboxamide], for which the IC50 is less than 1 nM.

As to `COCC(=O)N1CCC(NC(=O)c2c(C)[nH]c3c(-c4cc(C(C)=O)ccc4OCC4CC4)ncnc23)CC1` [Example E165, 4-[5-Acetyl-2-(cyclopropylmethoxy)phenyl]-N-[1-(methoxyacetyl)piperidin-4-yl]-6-methyl-5H-pyrrolo[3,2-d]pyrimidine-7-carboxamide], the IC50 was less than 1 nM.

On to `CC(=O)N[C@H]1CC[C@H](NC(=O)c2c(C)[nH]c3c(-c4cc(C(C)=O)ccc4OCC4CC4)ncnc23)CC1` [Example E166, N-[trans-4-(Acetylamino)cyclohexyl]-4-[5-acetyl-2-(cyclopropylmethoxy)phenyl]-6-methyl-5H-pyrrolo[3,2-d]pyrimidine-7-carboxamide], for which the IC50 is less than 1 nM.

On to `CCC(=O)N[C@H]1CC[C@H](NC(=O)c2c(C)[nH]c3c(-c4cc(C(C)=O)ccc4OCC4CC4)ncnc23)CC1` [Example E167, 4-[5-Acetyl-2-(cyclopropylmethoxy)phenyl]-6-methyl-N-[trans-4-(propanoylamino)cyclohexyl]-5H-pyrrolo[3,2-d]pyrimidine-7-carboxamide], for which the IC50 was less than 1 nM.

With `COCC(=O)N[C@H]1CC[C@H](NC(=O)c2c(C)[nH]c3c(-c4cc(C(C)=O)ccc4OCC4CC4)ncnc23)CC1` [Example E168, 4-[5-Acetyl-2-(cyclopropylmethoxy)phenyl]-N-{trans-4-[(methoxyacetyl)amino]cyclohexyl}-6-methyl-5H-pyrrolo[3,2-d]pyrimidine-7-carboxamide], the IC50 was less than 1 nM.

For the molecule `COc1cc(OCC2CC2)c(-c2nc(C)nc3c(C(=O)NC4CCN(C(C)=O)CC4)c(C)[nH]c23)cc1F` [Example E172, N-(1-Acetylpiperidin-4-yl)-4-[2-(cyclopropylmethoxy)-5-fluoro-4-methoxyphenyl]-2,6-dimethyl-5H-pyrrolo[3,2-d]pyrimidine-7-carboxamide], the IC50 is less than 1 nM.

As to `COc1cc(-c2nc(C)nc3c(C(=O)NC4CCN(C(C)=O)CC4)c(C)[nH]c23)c(OCC2CC2)cc1F` [Example E173, N-(1-Acetylpiperidin-4-yl)-4-[2-(cyclopropylmethoxy)-4-fluoro-5-methoxyphenyl]-2,6-dimethyl-5H-pyrrolo[3,2-d]pyrimidine-7-carboxamide], the IC50 was less than 1 nM.

For the molecule `CCC(=O)N1CCC(NC(=O)c2c(C)[nH]c3c(-c4cc(OC)c(F)cc4OCC4CC4)nc(C)nc23)CC1` [Example E174, 4-[2-(Cyclopropylmethoxy)-4-fluoro-5-methoxyphenyl]-2,6-dimethyl-N-(1-propanoylpiperidin-4-yl)-5H-pyrrolo[3,2-d]pyrimidine-7-carboxamide], the IC50 was less than 1 nM.

Regarding `COCC(=O)N1CCC(NC(=O)c2c(C)[nH]c3c(-c4cc(OC)c(F)cc4OCC4CC4)nc(C)nc23)CC1` [Example E175, 4-[2-(Cyclopropylmethoxy)-4-fluoro-5-methoxyphenyl]-N-[1-(methoxyacetyl)piperidin-4-yl]-2,6-dimethyl-5H-pyrrolo[3,2-d]pyrimidine-7-carboxamide], the IC50 was less than 1 nM.

`COc1cc(-c2ncnc3c(C(=O)N[C@@H]4CCN(C(C)=O)C4)c(C)[nH]c23)c(OCC2CC2)cc1F` [Example E179, N-[(3R)-1-Acetylpyrrolidin-3-yl]-4-[2-(cyclopropylmethoxy)-4-fluoro-5-methoxyphenyl]-6-methyl-5H-pyrrolo[3,2-d]pyrimidine-7-carboxamide]: the IC50 was less than 1 nM.

In the case of `CCC(=O)N1CC[C@@H](NC(=O)c2c(C)[nH]c3c(-c4cc(OC)c(F)cc4OCC4CC4)ncnc23)C1` [Example E180, 4-[2-(Cyclopropylmethoxy)-4-fluoro-5-methoxyphenyl]-6-methyl-N-[(3R)-1-propionylpyrrolidin-3-yl]-5H-pyrrolo[3,2-d]pyrimidine-7-carboxamide], the IC50 was less than 1 nM.

For `COCC(=O)N1CC[C@@H](NC(=O)c2c(C)[nH]c3c(-c4cc(OC)c(F)cc4OCC4CC4)ncnc23)C1` [Example E181, 4-[2-(Cyclopropylmethoxy)-4-fluoro-5-methoxyphenyl]-N-[(3R)-1-(methoxyacetyl)pyrrolidin-3-yl]-6-methyl-5H-pyrrolo[3,2-d]pyrimidine-7-carboxamide], the IC50 was less than 1 nM.

Consider `CCOC(=O)N1CC[C@@H](NC(=O)c2c(C)[nH]c3c(-c4cc(OC)c(F)cc4OCC4CC4)ncnc23)C1` [Example E182, Ethyl (3R)-3-[({4-[2-(cyclopropylmethoxy)-4-fluoro-5-methoxyphenyl]-6-methyl-5H-pyrrolo[3,2-d]pyrimidin-7-yl}carbonyl)amino]pyrrolidine-1-carboxylate], for which the IC50 was less than 1 nM.

On to `COc1cc(OCC2CC2)c(-c2ncnc3c(C(=O)N[C@@H]4CCN(C(C)=O)C4)c(C)[nH]c23)cc1F` [Example E186, N-[(3R)-1-Acetylpyrrolidin-3-yl]-4-[2-(cyclopropylmethoxy)-5-fluoro-4-methoxyphenyl]-6-methyl-5H-pyrrolo[3,2-d]pyrimidine-7-carboxamide], for which the IC50 is less than 1 nM.

In the case of `CCC(=O)N1CC[C@@H](NC(=O)c2c(C)[nH]c3c(-c4cc(F)c(OC)cc4OCC4CC4)ncnc23)C1` [Example E187, 4-[2-(Cyclopropylmethoxy)-5-fluoro-4-methoxyphenyl]-6-methyl-N-[(3R)-1-propionylpyrrolidin-3-yl]-5H-pyrrolo[3,2-d]pyrimidine-7-carboxamide], the IC50 is less than 1 nM.

Consider `COCC(=O)N1CC[C@@H](NC(=O)c2c(C)[nH]c3c(-c4cc(F)c(OC)cc4OCC4CC4)ncnc23)C1` [Example E188, 4-[2-(Cyclopropylmethoxy)-5-fluoro-4-methoxyphenyl]-N-[(3R)-1-(methoxyacetyl)pyrrolidin-3-yl]-6-methyl-5H-pyrrolo[3,2-d]pyrimidine-7-carboxamide], for which the IC50 is less than 1 nM.

With `Cc1[nH]c2c(-c3c(OCC4CC4)ccc4c3OCO4)ncnc2c1C(=O)NC1CCN(C(=O)CO)CC1` [Example F1, 4-[5-(Cyclopropylmethoxy)-1,3-benzodioxol-4-yl]-N-(1-glycoloylpiperidin-4-yl)-6-methyl-5H-pyrrolo[3,2-d]pyrimidine-7-carboxamide], the IC50 was less than 1 nM.

As to `Cc1[nH]c2c(-c3c(OCC4CC4)ccc4c3OCO4)ncnc2c1C(=O)NC1CCN(C(=O)[C@H](C)O)CC1` [Example F2, 4-[5-(Cyclopropylmethoxy)-1,3-benzodioxol-4-yl]-N-{1-[(2S)-2-hydroxypropanoyl]piperidin-4-yl}-6-methyl-5H-pyrrolo[3,2-d]pyrimidine-7-carboxamide], the IC50 is less than 1 nM.
